# Laboratory results reported in patent US9661854B2, “Molecules having pesticidal utility, and intermediates, compositions, and processes, related thereto” (Dow AgroSciences LLC, priority 2015, dated 2017).
# Key:
# [1] = system: Beet Armyworm (Spodoptera exigua, LAPHEG); assay: Bioassay on Beet Armyworm (BAW), 128-well diet tray assay; format: in vivo; details: 168 h, 50 μg/cm^2 on artificial diet, second instar larvae, 25° C., five to seven days, average of eight wells, read-out: BAW % Control (or Mortality) rating
# Protocol: (§1) Example A: Bioassays on Beet Armyworm (Spodoptera exigua, LAPHEG) (“BAW”) and Cabbage Looper (Trichoplusia ni, TRIPNI) (“CL”)
# (§2) Certain molecules disclosed in this document were tested against BAW and CL using procedures described in the following examples. In the reporting of the results, the “BAW & CL Rating Table” was used (See Table Section).
# Bioassays on BAW were conducted using a 128-well diet tray assay. One to five second instar BAW larvae were placed in each well (3 mL) of the diet tray that had been previously filled with 1 mL of artificial diet to which 50 μg/cm^2 of the test molecule (dissolved in 50 μL of 90:10 acetone-water mixture) had been applied (to each of eight wells) and then allowed to dry. Trays were covered with a clear self-adhesive cover, vented to allow gas exchange, and held at 25° C., 14:10 light-dark for five to seven days. Percent mortality was recorded for the larvae in each well; activity in the eight wells was then averaged. The results are indicated in the table entitled “Table ABC: Biological Results” (See Table Section).
# [2] = system: Cabbage Looper (Trichoplusia ni, TRIPNI); assay: Bioassay on Cabbage Looper (CL), 128-well diet tray assay; format: in vivo; details: 168 h, 50 μg/cm^2 on artificial diet, second instar larvae, 25° C., five to seven days, average of eight wells, read-out: CL % Control (or Mortality) rating
# Protocol: as §1, §2
# Bioassays on CL were conducted using a 128-well diet tray assay. One to five second instar CL larvae were placed in each well (3 mL) of the diet tray that had been previously filled with 1 mL of artificial diet to which 50 μg/cm^2 of the test molecule (dissolved in 50 μL of 90:10 acetone-water mixture) had been applied (to each of eight wells) and then allowed to dry. Trays were covered with a clear self-adhesive cover, vented to allow gas exchange, and held at 25° C., 14:10 light-dark for five to seven days. Percent mortality was recorded for the larvae in each well; activity in the eight wells was then averaged. The results are indicated in the table entitled “Table ABC: Biological Results” (See Table Section).
Compound,mortality at 50 µg/cm2 [1] [%],mortality at 50 µg/cm2 [2] [%]
"Cc1ccc(C(C)C)c(N2C(=O)CS/C2=N\C(=O)Nc2ccc(CCc3ncn(-c4ccc(OC(F)(F)F)cc4)n3)cc2C(F)(F)F)c1 [F25, (Z)-1-(3-(2-Isopropyl-5-methylphenyl)-4-oxothiazolidin-2-ylidene)-3-(4-(2-(1-(4-(trifluoromethoxy)phenyl)-1H-1,2,4-triazol-3-yl)ethyl)-2-(trifluoromethyl)phenyl)urea]",50 to 100,50 to 100
"CC(C)c1ccc(C(F)(F)F)cc1N1C(=O)CS/C1=N\C(=O)Nc1ccc(CCc2ncn(-c3ccc(OC(F)(F)F)cc3)n2)cc1F [F27, (Z)-1-(2-Fluoro-4-(2-(1-(4-(trifluoromethoxy)phenyl)-1H-1,2,4-triazol-3-yl)ethyl)phenyl)-3-(3-(2-isopropyl-5-(trifluoromethyl)phenyl)-4-oxothiazolidin-2-ylidene)urea]",50 to 100,50 to 100
"Cc1ccc(C2CC2(F)F)c(N2C(=O)CS/C2=N\C(=O)Nc2ccc(CCc3ncn(-c4ccc(OC(F)(F)F)cc4)n3)cc2)c1 (stereo not shown) [F28, (Z)-1-(3-(2-(2,2-Difluorocyclopropyl)-5-methylphenyl)-4-oxothiazolidin-2-ylidene)-3-(4-(2-(1-(4-(trifluoromethoxy)phenyl)-1H-1,2,4-triazol-3-yl)ethyl)phenyl)urea]",50 to 100,50 to 100
"CC(C)c1ccc(C(F)(F)F)cc1N1C(=O)CS/C1=N\C(=O)Nc1ccc(CCc2ncn(-c3ccc(OC(F)(F)F)cc3)n2)cc1 [F29, (Z)-1-(3-(2-Isopropyl-5-(trifluoromethyl)phenyl)-4-oxothiazolidin-2-ylidene)-3-(4-(2-(1-(4-(trifluoromethoxy)phenyl)-1H-1,2,4-triazol-3-yl)ethyl)phenyl)urea]",50 to 100,50 to 100
"Cc1ccc(C2CC2(F)F)c(N2C(=O)CS/C2=N\C(=O)Nc2ccc(CCc3ncn(-c4ccc(OC(F)(F)F)cc4)n3)cc2F)c1 (stereo not shown) [F30, (Z)-1-(3-(2-(2,2-Difluorocyclopropyl)-5-methylphenyl)-4-oxothiazolidin-2-ylidene)-3-(2-fluoro-4-(2-(1-(4-(trifluoromethoxy)phenyl)-1H-1,2,4-triazol-3-yl)ethyl)phenyl)urea]",50 to 100,50 to 100
"COC(C)c1ccc(C)cc1N1C(=O)CS/C1=N\C(=O)Nc1ccc(CCc2ncn(-c3ccc(OC(F)(F)F)cc3)n2)cc1 (stereo not shown) [F31, (Z)-1-(3-(2-(1-Methoxyethyl)-5-methylphenyl)-4-oxothiazolidin-2-ylidene)-3-(4-(2-(1-(4-(trifluoromethoxy)phenyl)-1H-1,2,4-triazol-3-yl)ethyl)phenyl)urea]",50 to 100,50 to 100
"Cc1ccc(C(C)C)c(N2C(=O)CS/C2=N\C(=O)Nc2ccc(CCc3ncn(-c4ccc(OC(F)(F)F)cc4)n3)cn2)c1 [F32, (Z)-1-(3-(2-Isopropyl-5-methylphenyl)-4-oxothiazolidin-2-ylidene)-3-(5-(2-(1-(4-(trifluoromethoxy)phenyl)-1H-1,2,4-triazol-3-yl)ethyl)pyridin-2-yl)urea]",50 to 100,50 to 100
"Cc1ccc(C(C)C)c(N2C(=O)CS/C2=N\C(=O)Nc2ccc(CCc3ncn(-c4ccc(OC(F)(F)F)cn4)n3)cn2)c1 [F33, (Z)-1-(3-(2-Isopropyl-5-methylphenyl)-4-oxothiazolidin-2-ylidene)-3-(5-(2-(1-(5-(trifluoromethoxy)pyridin-2-yl)-1H-1,2,4-triazol-3-yl)ethyl)pyridin-2-yl)urea]",50 to 100,50 to 100
"Cc1ccc(C(C)C)c(N2C(=O)CS/C2=N\C(=O)Nc2ccc(CCc3ncn(-c4ncc(C(F)(F)F)cc4Cl)n3)cc2)c1 [F34, (Z)-1-(4-(2-(1-(3-Chloro-5-(trifluoromethyl)pyridin-2-yl)-1H-1,2,4-triazol-3-yl)ethyl)phenyl)-3-(3-(2-isopropyl-5-methylphenyl)-4-oxothiazolidin-2-ylidene)urea]",0,50 to 100
"O=C(/N=C1\SCC(=O)N1C1CCCCC1)Nc1ccc(CCc2ncn(-c3ccc(OC(F)(F)F)cc3)n2)cc1 [F35, (Z)-1-(3-Cyclohexyl-4-oxothiazolidin-2-ylidene)-3-(4-(2-(1-(4-(trifluoromethoxy)phenyl)-1H-1,2,4-triazol-3-yl)ethyl)phenyl)urea]",50 to 100,50 to 100
"Cc1ccc(C(C)C)c(-n2ccs/c2=N\C(=O)Nc2ccc(CCc3ncn(-c4ccc(OC(F)(F)F)cc4)n3)cc2)c1 [F36, (Z)-1-(3-(2-Isopropyl-5-methylphenyl)thiazol-2(3H)-ylidene)-3-(4-(2-(1-(4-(trifluoromethoxy)phenyl)-1H-1,2,4-triazol-3-yl)ethyl)phenyl)urea]",50 to 100,50 to 100
"Cc1ccc(C(C)C)c(-n2ccs/c2=N\C(=O)Nc2ccc(CCc3ncn(-c4ccc(OC(F)(F)F)cc4)n3)cc2F)c1 [F37, (Z)-1-(2-Fluoro-4-(2-(1-(4-(trifluoromethoxy)phenyl)-1H-1,2,4-triazol-3-yl)ethyl)phenyl)-3-(3-(2-isopropyl-5-methylphenyl)thiazol-2(3H)-ylidene)urea]",50 to 100,50 to 100
"Cc1ccc(C(C)C)c(N2C(=O)CS/C2=N\C(=O)Nc2ccc(/C=C/c3ncn(-c4ccc(OC(F)(F)F)cc4)n3)c(C)c2)c1 [F39, 1-((Z)-3-(2-Isopropyl-5-methylphenyl)-4-oxothiazolidin-2-ylidene)-3-(3-methyl-4-((E)-2-(1-(4-(trifluoromethoxy)phenyl)-1H-1,2,4-triazol-3-yl)vinyl)phenyl)urea]",50 to 100,50 to 100
"COc1cc(NC(=O)/N=C2\SCC(=O)N2c2cc(C)ccc2C(C)C)ccc1/C=C/c1ncn(-c2ccc(OC(F)(F)F)cc2)n1 [F40, 1-((Z)-3-(2-Isopropyl-5-methylphenyl)-4-oxothiazolidin-2-ylidene)-3-(3-methoxy-4-((E)-2-(1-(4-(trifluoromethoxy)phenyl)-1H-1,2,4-triazol-3-yl)vinyl)phenyl)urea]",50 to 100,50 to 100
"Cc1ccc(F)c(N2C(=O)CS/C2=N\C(=O)Nc2ccc(/C=C/c3ncn(-c4ccc(OC(F)(F)F)cc4)n3)cc2)c1 [F41, 1-((Z)-3-(2-Fluoro-5-methylphenyl)-4-oxothiazolidin-2-ylidene)-3-(4-((E)-2-(1-(4-(trifluoromethoxy)phenyl)-1H-1,2,4-triazol-3-yl)vinyl)phenyl)urea]",50 to 100,50 to 100
"COc1ccc(C)cc1N1C(=O)CS/C1=N\C(=O)Nc1ccc(/C=C/c2ncn(-c3ccc(OC(F)(F)F)cc3)n2)cc1 [F42, 1-((Z)-3-(2-Methoxy-5-methylphenyl)-4-oxothiazolidin-2-ylidene)-3-(4-((E)-2-(1-(4-(trifluoromethoxy)phenyl)-1H-1,2,4-triazol-3-yl)vinyl)phenyl)urea]",50 to 100,50 to 100
"Cc1ccc(C(F)(F)F)c(N2C(=O)CS/C2=N\C(=O)Nc2ccc(/C=C/c3ncn(-c4ccc(OC(F)(F)F)cc4)n3)cc2)c1 [F43, 1-((Z)-3-(5-Methyl-2-(trifluoromethyl)phenyl)-4-oxothiazolidin-2-ylidene)-3-(4-((E)-2-(1-(4-(trifluoromethoxy)phenyl)-1H-1,2,4-triazol-3-yl)vinyl)phenyl)urea]",50 to 100,50 to 100
